In patent publication US20140099354A1, “BIOPASSIVATING MEMBRANE STABILIZATION BY MEANS OF NITROCARBOXYLIC ACID-CONTAINING PHOSPHOLIPIDS IN PREPARATIONS AND COATINGS” (priority 2011, published 2014):
Where two headings read alike, the source gives them in different places.

Tests used:
[1] = test system: HeLa, HUVEC and L929 fibroblast; experiment: cells; type: cell-based; details: for viability as quantified by the MTT assay: tested concentrations 10 μmol to 1 mmol, EC50 could not be calculated; for EC50: after 48 hours
Experimental: (§1) Physiologically occurring phospholipids can be taken up by virtually all cell lines in large quantities. It is known that phospholipids that contain non-physiologically occurring fatty acid residues can cause cell lyses or death. Three cell lines (HeLa, HUVEC and L929 fibroblast) were cultured in a suitable culture medium of 5% FCS at 37° C. and 5% CO2 concentrations to a subconfluent concentration of 1.5×10^5 cells.
SOPC, DOPC, POPC, ONOPC, PNLPC, and the free fatty acids of OA, LA, NOOA, and NOLA were dissolved in 0.5% DMSO. […] Cell cultures were incubated for 24 h and 48 h. Thereafter, the culture medium was removed and the cells washed twice. Following this, cells suspensions were given in four vials to perform the following analysis:
For the determination of viability, phenol red was added to the suspended cells. After 4 h, the medium was renewed and 10 μl of the MTT solution was added. The cells were cultured for 4 hours, and then a 10% SDS solution was pipetted. After 24 h, absorption of formazan crystals was measured at 500 nm using a power wave X (bio-tek instruments, Inc., USA). For the quantitative comparison of toxicity, the EC50 was determined.

[2] = test system: HeLa, HUVEC and L929 fibroblast; experiment: Volumetric measurement of cells (Coulter counter); type: cell-based; details: time-dependent increase after incubation
Experimental: as §1
(§2) SOPC, DOPC, POPC, ONOPC, PNLPC, and the free fatty acids of OA, LA, NOOA, and NOLA were dissolved in 0.5% DMSO. Experiments were performed also with nitro-carboxylic acid-containing phospholipids according to examples N15-N20, G, O3, O5, P2, P5, P8, P9, P11 and Q. PL prepared as aqueous suspensions were added the culture flasks in order to achieve PL concentrations in the culture medium from 10 μmol to 1 mmol. Cell cultures were incubated for 24 h and 48 h. Thereafter, the culture medium was removed and the cells washed twice. Following this, cells suspensions were given in four vials to perform the following analysis:
Volumetric measurement of cells was done in a Histopenz (Sigma) solution with an effective NaCl concentration of 0.9% (approximately 290 mOsm) heated to 37° C. in which the cells were suspended; thereafter the solution was sonified for 2 minutes. Measurements were done using a Coulter counter Z2.

[3] = test system: HeLa, HUVEC and L929 fibroblast; experiment: Cell viability with the live/dead assay; type: cell-based
Experimental: as §1, §2
Studies of cell viability were carried out with the live/dead assay (Molecular Probes). For this purpose, the cells were washed twice with PBS solution and then seeded into a culture medium. Incubation with the staining solution (in 0.1% DMSO) was carried out over 30 minutes in the dark. The viability analyses were performed using fluorescence microscopy.

[4] = Abrasion stability and traction work load of coated balloon catheters; type: physicochemical
Experimental: Balloon catheters were coated by means of the Langmuir-Schaefer procedure where the balloon segment was aligned longitudinally and coaxial to the solution surface, dipping into the liquid for approx. 1 mm over the entire length. Then the catheter was slowly rotated around its axis 5 times. Phospholipids were dissolved at a concentration of 3 mmol in an ion-free aqueous solution at 50° C. The solution was cooled and given to the coating solution then. In case of incomplete dissolution of the phospholipids or if they separated when cooled, DMSO was added at a concentration of up to 20 vol.-%, preferably up to 10 vol.-%. After coating, the catheters were vacuum dried for 8 hours in order to remove residual solvent.
The tubing was filled with a 10% human albumin solution at a temperature of 35° C. The cable system, which had previously been brought through the tubing was connected to the catheter tip and tracked outside the tubing by reversing pulleys, which allowed exactly vertically traction of the cable that was connected to a motorized winch. The winch was mounted on a digital precision balance. The catheters mounted in this manner were pulled through the tubing system and the weight changes measured by the balance, which represented the traction work load achieved for the passage of the catheter, was recorded continuously. These readings were integrated over time. The resultant values allow estimation of the total shear force that occurred during the passage of the catheter through the tubing system.
The abrasion or loss of coating layers was determined by weighing the catheter before and after coating as well as after the mechanical stability test in the tubing system as described above using a high precision balance.

TRPV1, 2 and 4, TRPA1 = experiment: Inducible ion current of TRP receptors in Xenopus oocytes (voltage clamp); type: cell-based, rat; details: 50 mmol/l, 10 and 60 minutes
Experimental: An established in-vitro model of Xenopus oocytes (Dascal N, 1987 The use of Xenopus oocytes. CRC critical reviews in biochemistry 22, 317-387) was used to study the influence of incubation with PL on ion channels regulated by membrane receptors. Defolliculized oocytes were transfected with cRNA (rat) of TRPV1, 2 and 4, as well as of TRPA1, stored in tissue culture plates and incubated in culture medium (ND 96) at 15° C. under constant motion in the incubator for 7 to 10 days.
Induced leakage currents through activation of the TRP receptors was determined by means of double electrode voltage-clamp technique (Ahern G P, Brooks I M, Miyares R L &Wang X B, 2005, Extracellular cations sensitize and gate capsaicin receptor TRPV1 modulating pain signalling. J Neurosci 25, 5109-5116). Ooocytes were probed with borosilicate glass capillaries (Clark) and connected to a feedback amplifier (Gene clamp Amplifier, Axon instruments). The membrane potential of oocytes was clamped to −60 or −90 mV. The presence of a directive […] current was compared to non-transfected controls. The investigations were performed in a miniature organ bath in calcium-free buffered (Hepes, pH 7.3) NaCl solution. The TRPV1 receptor excitation was initiated by rapidly changing of the bath solution against a capsaicin solution (10 μmol). Results of non-pretreated oocytes were used for normative comparison of subsequent measurements of incubatesd cells. Investigations with incubated cells were carried out in the same way for oocytes transfected with the TRPV2, and TRPV4 and TRPA1 receptors, wherein the receptor agonists cannabidiol (10 μmol) and 4α-PDD (4α-phorbol 12,13-didecanoate, 50 μmol) and innamaldehyde (50 μmol) were used instead of capsaicin.

[5] = Tissue response to coated silicone implants in vivo after bleomycin; set-up: species or system Wistar rats; details: silicone cushions, subcutaneous, 7 to 90 days
Experimental: Induction of fibrotic tissue production by connective tissue activation as a consequence of implantation of foreign material was examined in an in-vivo animal model. As implant materials, sterile silicone cushions having a diameter of 1 cm were used.
In male Wistar rats (190-240 g) that were fed and housed under identical conditions for one week, general anaesthesia was performed by intramuscular injection of 0.008 mL/100 g ketamine and 0.004 mL/100 g xylocaln chloride 2%. Then the back of the animals was shaved, sterilized and infiltrated with xylocalne chloride. A paravertebral incision was made on both sides with a length of 1.5 cm followed by preparation of the subcutaneous tissue, so that on both sides approx. 2×2 cm cavities were preformed. Hemostasis was achieved by cauterization, if necessary. Then balls of cotton saturated with Bleomycin (cell-pharm GmbH, Hannover, Germany: 1% in 0.9% NaCl solution) were inserted into the cavities for 3 minutes and then removed. Without rinsing the cavities, the implants coated with a nitrated phospholipid were inserted into the cavity on the left side and the implants coated with natural phospholipid into the cavity on the right side. Thereafter, a layer by layer wound closure was performed and a sterile adhesive bandage was applied.
The animals were kept according to standard conditions for 7, 14, 30, 60 and 90 days. At any study time endpoint, two animals were euthanized. After death the well visible and palpable implants were removed using en-block resection technique. The resected specimens were fixed and embedded in paraffin. Then they were cut in half and the liquid silicone was removed. The specimens were embedded again and cut into thin slices which were stained with H & E and Sirius red, and evaluated by light microscopy. Evaluation was done according to the following criteria:
A1: none; A2: occasional monocytic cells or lymphocytes; A3: moderate numbers or groups of monocytic cells or lymphocytes; A4: dense infiltration of monocytes, eosinophils, or giant cells.
B1: none; B2: collagen-rich layer around the implant; B3: thick (>1 mm) and dense collagen-rich tissue formation around the implant.
In every 10th serial section 10 fields of view uniformly distributed over the circumference of the implant were evaluated and the herein predominant expression was assigned to an event table. In total, 200 fields of view were analyzed per implant

sciatic nerve = experiment: Viability of cryopreserved nerve grafts (Annexin-V staining, FACS); type: cell-based, rats; details: 100 mmolar solution 1 hour; −30° C. 72 hours
[6] = test system: Cardiac muscle cells derived from neonatal rat heart; experiment: Hypoxia of cardiac muscle cells (viability, mitochondrial NAD+); type: cell-based; set-up: loss of viability of heart muscle cells after hypoxia: concentration or dose not given beside the values; details: for mitochondrial NAD+ content: hypoxia, baseline 5
Experimental: Cardiac muscle cells derived from neonatal rat heart (Nitobe J, et al, Reactive oxygene species regulate FLICE inhibitory protein and susceptibility to FAS-mediated apoptosis in cardiac myocytes. Cardiovasc RES 2003, 119-28). The heart muscle cells were cultured in Dulbecco/Eagle medium (DMEM) with 10% FCS added under standard conditions for two days. Incubation with the natural and nitrated phospholipids, as well as the hypoxia experiments were carried out as described above. Incubated cells were grown in culture medium under standard conditions for 24 hours. This is followed by a vitality staining as described above. […] The frozen cells were thawed up to -4° C. and homogenized for subsequent NAD^+ analyses. By means of differential centrifuge, pellets containing mitochondria were separated (Di Lisa, et al, 1993; Am. J. Physiol. 264, […]-[…]). The NAD^+ content was determined by fluoroscopy, and normalized to the protein content (Veloso, D., and […]., 1974;) Anal. Biochem., 449-450).

cortical neurons = experiment: Hypoxia and reperfusion of cortical neurons (viability, LDH)
Experimental: To determine whether the membrane-stabilizing properties of nitrated phospholipids can lead to attenuation of effects due to an ischemic event or the re-perfusion damage, cortical neurons and cardiac myocytes were investigated.
Freshly prepared cortex tissue was separated with Papain and tissue suspensions were cultured in culture vessels (Prim ARA; BD Biosciences, USA) with Neurobasal A/B27 medium (Invitrogen) for 10-12 days. Cell suspensions were divided, and replenished with suspensions of the natural phospholipids SOPC and PLPC, as well as the analogue phospholipids with nitration of unsaturated fatty acids (1-stearoyl-2-(9-nitrooleoyl)-sn-PC and 1-palmitoyl-2-(9-nitrolinoleoyl)-sn-PC) at concentrations of 10 to 50 μmol/l in NaCl (0.9%) were added. […] After 4 hours, the cells were washed three times with buffered saline and buffered NaCl solution with the addition of MgCl2 and CaCl2 in an anaerobic atmosphere (85% N2, 5% O2, 10% CO2; at 35° C.) for 10 and 30 minutes. Then, the cells were washed once and grown in culture medium under aerobic conditions for 24 hours. […] Cells were stained with annexin V-FITC and propidium iodide (Molecular probes, USA). The vital and necrotic cells were measured by flow cytometry (FACSCalibur, Becton & Dickinson). The volume of culture medium was determined and an aliquot was taken for determination of the LDH (lactate dehydrogenase) concentration.

[7] = test system: Heart muscle cells from rabbit hearts; experiment: Cytosolic Ca2+ concentration in heart muscle cells (fluo-4 fluorescence); type: cell-based
Experimental: Heart muscle cells were taken from rabbit hearts according to a method described elsewhere (Shannon T R, Ginsburg K S, Bers D M. Quantitative assessment of the SRCa^2+ leak-load relationship. Circ Res. 2002; 91:594-600). The prepared cells were cultured for 72 hours.
The cytosolic Ca^2+ concentrations were determined with fluo-4 fluorescence. Therefore the cells were incubated with 10 μmol fluo-4 AM (1%) for 30 minutes and washed thereafter three times with PBS. The cells were stimulated in a Tryode solution on a platinum electrode with a frequency of 0.5 Hz over 20 cycles. Then the ambient medium was changed and an electrolyte-free colloidal solution was added. Determination of the Ca concentration was performed after each series of stimulation over 20 cycles. Calcium content was estimated by the use of confocal laser scanning microscopy (Olympus). At least 10 cells per experiment were evaluated in a post-systolic interval of 1000 ms. The measurements were repeated at least three times. β-adrenergic stimulation was performed with 250 nmol/L isoproterenol, which was given to the medium.

ovarian tissue strips [8] = experiment: Cryopreservation of ovarian tissue strips: 17 β-estradiol and progesterone (radio-immuno assay); type: cell-based, sheep; details: after cryopreservation and culture
Experimental: Ovar ectomy was performed in female sheep; resected tissues were cut into 60 ovarian tissue strips. The ovarian strips were either cultured directly (n=4) or prepared with a usual solution for vitrification (VS group; Vitrification Kit, Sage, USA) or incubated with nitrated PLs (NPL group). For this purpose, the tissue strips were bathed in an equibrilation solution (ART-8025-A) which consisted of MOPS-buffered amino acids and gentamicin sulfate (10 mg/l), and 7.5% (v/v) of each DMSO and ethylene glycol and 12 mg/ml human serum albumin for 30 minutes. Thereafter the strips of the VS group were placed in the vitrification solution (ART-8025-B), which is a MOPS-buffered solution containing amino acids and gentamicin sulfate, that contain 15% (v/v) each DMSO and ethylenglycol, 12 mg/ml human albumin and 0.6 M sucrose. The strips of the NPL group were placed in a solution containing 25% (v/v) nitrated PL SNOPC or PNLPC in a PBS-buffered 1% DMSO solution containing 5% human albumin for 60 minutes. The treated tissue strips were then immersed into liquid nitrogen and kept here for 14 days. Then removal and warming of the tissue pieces was performed in AIM-V medium (Gibco, Invitrogen) in a sterile culture dish, first up to 5° C. within 20 minutes, then heated further in a water bath up to 37° C., within the following 60 minutes. The culture medium was replaced and specimens cultured for 14 days. After this, the tissue pieces were fixed, embedded in paraffin and cut, followed by histological examination. […] The total number of intact follicles in the control group was taken as a reference to the number of follicles in the cryopreserved groups.
The culture medium has been exchanged by every 2nd day; samples for hormone analysis were taken and frozen at that time. Determination of 17 β-estradiol and progesterone were performed with a radio-immuno assay (diagnostic systems laboratories, USA).

ovarian tissue strips [9] = experiment: Cryopreservation of ovarian tissue strips: intact follicles; details: liquid nitrogen 14 days, cultured 14 days
[10] = for the different cell lines, read-out: EC50 concentration (MTT assay)

## CCCCCCCC/C=C\CCCCCCCC(=O)OC[C@H](COP(=O)([O-])OCC[N+](C)(C)C)OC(=O)CCCCCCC/C=C\CCCCCCCC [DOPC, 1,2-dioleoyl-sn-glycero-3-PC]
[1]
  viability as quantified by the MTT assay: only slightly decreased
[2]
  cell volume (increase in size to): 180%
[3]
  viability according to the live/dead staining: high rate of viability

## CCCCCCCC/C=C(\CCCCCCCC(=O)OC[C@H](COP(=O)(O)OCCN)OC(=O)CCCCCCC/C(=C\CCCCCCCC)[N+](=O)[O-])[N+](=O)[O-] [Example D, 1,2-di-(9-nitrooleoyl)-sn-3-glycero-phosphatidylethanolamine]
[4]
  mechanical removal of coating substance and workload to pull the catheter through PTFE tubing: Very similar results
TRPV1, 2 and 4, TRPA1
  inducible membrane channel activity of TRP channels: significant decrease of inducible membrane channel activity
[5]
  biocompatibility of coated implants compared to natural PLs: improved biocompatibility of implants several-fold
Sciatic nerve
  proportion of living cells relative to non-frozen control: 89%

## CCCCC/C=C\C/C=C(\CCCCCCCC(=O)O)[N+](=O)[O-] [nitro-linoleic acid, E-9-nitrolinoleic acid]
[1]; [10]
  EC50: 50 to 100 µM
[2]
  cell volume (increase in size to): 120%

## CCCCCCCC/C=C\CCCCCCCC(=O)O [oleic acid, Oleic acid]
[1]; [10]
  EC50: 180 to 260 µM
[2]
  cell volume (increase in size to): 200%

## CCCCCCCC/C=C\CCCCCCCC(=O)O[C@H](COC(=O)CCCCCCCCCCCCCCCCC)COP(=O)([O-])OCC[N+](C)(C)C [SOPC, 1-Stearoyl-2-oleoyl-sn-glycero-3-PC, reference compound]
[1]
  viability as quantified by the MTT assay: only slightly decreased
[2]
  cell volume (increase in size to): 150%
[3]
  viability according to the live/dead staining: high rate of viability
[6]; (10 minutes)
  loss of viability of heart muscle cells after hypoxia: 14%
[6]; (30 minutes)
  loss of viability of heart muscle cells after hypoxia: 40%
[6]; first printed value
  mitochondrial NAD+ content: 3.0 nmol/mg protein
[6]; second printed value
  mitochondrial NAD+ content: 1.1 nmol/mg protein
Sciatic nerve
  proportion of living cells relative to non-frozen control: 26%
Cortical neurons; 10-minutes ischemia
  increase in LDH versus normoxemia culture: 280 fold
  viability of cortical cells measured after 24 hours: 33%
Cortical neurons; 30-minutes ischemia
  increase in LDH versus normoxemia culture: 640 fold
  viability of cortical cells measured after 24 hours: 0%

## CCCCCCCC/C=C(\CCCCCCCC(=O)O)[N+](=O)[O-] [nitro oleic acid, E-9-nitrooleic acid]
[1]; [10]
  EC50: 10 to 50 µM
[2]
  cell volume (increase in size to): 140%

## CCCCCCCC/C=C(\CCCCCCCC(=O)OC[C@H](COP(=O)([O-])OCC[N+](C)(C)C)OC(=O)CCCCCCC/C(=C\CCCCCCCC)[N+](=O)[O-])[N+](=O)[O-] [Example B, 1,2-di-(9-nitrooleoyl)-sn-3-glycerophosphocholine]
[4]
  mechanical removal of coating substance and workload to pull the catheter through PTFE tubing: Very similar results
TRPV1, 2 and 4, TRPA1
  inducible membrane channel activity of TRP channels: significant decrease of inducible membrane channel activity
[5]
  biocompatibility of coated implants compared to natural PLs: improved biocompatibility of implants several-fold
Sciatic nerve
  proportion of living cells relative to non-frozen control: 83%

## CCCCC/C=C\CC=C(CCCCCCCC(=O)O[C@H](COC(=O)CCCCCCCCCCCCCCC)COP(=O)([O-])OCC[N+](C)(C)C)[N+](=O)[O-] [Example P7, 1-palmitoyl-2-(9-nitrolinoleoyl)-sn-3-glycerophosphocholine]
[1]
  total viability (MTT assay): 75%
[1]; range over cell lines, read-out: EC50 (MTT assay)
  EC50: 400 to 3900 µM
[6]; (10 minutes)
  loss of viability of heart muscle cells after hypoxia: 5%
[6]; (30 minutes)
  loss of viability of heart muscle cells after hypoxia: 18%
[6]; first printed value
  mitochondrial NAD+ content: 3.6 nmol/mg protein
[6]; second printed value
  mitochondrial NAD+ content: 3.1 nmol/mg protein
[7]; after hypoxia
  end of diastole (ED) cytosolic calcium: 70 nmol/L
  post systolic (PS) cytosolic calcium: 30 nmol
[7]; after hypoxia and stimulation with isoproterenol
  end of diastole (ED) cytosolic calcium: 100 nmol/L
[7]; normoxic conditions
  end of diastole (ED) cytosolic calcium: 30 nmol/L
  post systolic (PS) cytosolic calcium: 10 nmol
TRPV1, 2 and 4, TRPA1
  inducible membrane channel activity of TRP channels: significant decrease of inducible membrane channel activity
[5]
  biocompatibility of coated implants compared to natural PLs: improved biocompatibility of implants several-fold
Ovarian tissue strips [8]
  estradiol: 8.3 ng/mL
  progesterone: 0.4 ng/mL
Ovarian tissue strips [9]
  rate of intact follicles relative to the control group: 98%
Cortical neurons; 10-minutes ischemia
  increase in LDH versus normoxemia culture: 130 fold
  viability of cortical cells measured after 24 hours: 70%
Cortical neurons; 30-minutes ischemia
  increase in LDH versus normoxemia culture: 290 fold
  viability of cortical cells measured after 24 hours: 52%

## CCCCC/C=C\C/C=C\CCCCCCCC(=O)O [linoleic acid, Linoleic acid]
[1]; [10]
  EC50: 240 to 260 µM
[2]
  cell volume (increase in size to): 170%
